Experimental data published in patent publication US12539292B2, “BRM targeting compounds and associated methods of use” (Arvinas Operations, Inc., priority 2018, dated 2026).

Target: T1, BRM (Homo sapiens, UniProt P51531)
T1 construct: In-Cell Western Screen of BRM Degradation in SW1573 Cells; endogenous in cells; host or cells: SW1573
Assay: In-cell Western screen of BRM degradation in SW1573 cells (Dmax and DC50)
Type: cell-based
Settings: BRM degradation, SW1573 cells; for DC50: read-out: DC50; for Dmax: tested at the top concentration of between 0.3 and 10 μM, read-out: Dmax (%) (% degraded)
Method in brief: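 Overnight compound treatment (18-20 h, final DMSO 0.1%) of SW1573 cells in DMEM with 10% FBS precedes fixation and in-cell Western staining with 800/680 nm dye-labelled secondaries. Plate images give DC50 and maximal degradation.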

T1 sequence (P51531 whole entry): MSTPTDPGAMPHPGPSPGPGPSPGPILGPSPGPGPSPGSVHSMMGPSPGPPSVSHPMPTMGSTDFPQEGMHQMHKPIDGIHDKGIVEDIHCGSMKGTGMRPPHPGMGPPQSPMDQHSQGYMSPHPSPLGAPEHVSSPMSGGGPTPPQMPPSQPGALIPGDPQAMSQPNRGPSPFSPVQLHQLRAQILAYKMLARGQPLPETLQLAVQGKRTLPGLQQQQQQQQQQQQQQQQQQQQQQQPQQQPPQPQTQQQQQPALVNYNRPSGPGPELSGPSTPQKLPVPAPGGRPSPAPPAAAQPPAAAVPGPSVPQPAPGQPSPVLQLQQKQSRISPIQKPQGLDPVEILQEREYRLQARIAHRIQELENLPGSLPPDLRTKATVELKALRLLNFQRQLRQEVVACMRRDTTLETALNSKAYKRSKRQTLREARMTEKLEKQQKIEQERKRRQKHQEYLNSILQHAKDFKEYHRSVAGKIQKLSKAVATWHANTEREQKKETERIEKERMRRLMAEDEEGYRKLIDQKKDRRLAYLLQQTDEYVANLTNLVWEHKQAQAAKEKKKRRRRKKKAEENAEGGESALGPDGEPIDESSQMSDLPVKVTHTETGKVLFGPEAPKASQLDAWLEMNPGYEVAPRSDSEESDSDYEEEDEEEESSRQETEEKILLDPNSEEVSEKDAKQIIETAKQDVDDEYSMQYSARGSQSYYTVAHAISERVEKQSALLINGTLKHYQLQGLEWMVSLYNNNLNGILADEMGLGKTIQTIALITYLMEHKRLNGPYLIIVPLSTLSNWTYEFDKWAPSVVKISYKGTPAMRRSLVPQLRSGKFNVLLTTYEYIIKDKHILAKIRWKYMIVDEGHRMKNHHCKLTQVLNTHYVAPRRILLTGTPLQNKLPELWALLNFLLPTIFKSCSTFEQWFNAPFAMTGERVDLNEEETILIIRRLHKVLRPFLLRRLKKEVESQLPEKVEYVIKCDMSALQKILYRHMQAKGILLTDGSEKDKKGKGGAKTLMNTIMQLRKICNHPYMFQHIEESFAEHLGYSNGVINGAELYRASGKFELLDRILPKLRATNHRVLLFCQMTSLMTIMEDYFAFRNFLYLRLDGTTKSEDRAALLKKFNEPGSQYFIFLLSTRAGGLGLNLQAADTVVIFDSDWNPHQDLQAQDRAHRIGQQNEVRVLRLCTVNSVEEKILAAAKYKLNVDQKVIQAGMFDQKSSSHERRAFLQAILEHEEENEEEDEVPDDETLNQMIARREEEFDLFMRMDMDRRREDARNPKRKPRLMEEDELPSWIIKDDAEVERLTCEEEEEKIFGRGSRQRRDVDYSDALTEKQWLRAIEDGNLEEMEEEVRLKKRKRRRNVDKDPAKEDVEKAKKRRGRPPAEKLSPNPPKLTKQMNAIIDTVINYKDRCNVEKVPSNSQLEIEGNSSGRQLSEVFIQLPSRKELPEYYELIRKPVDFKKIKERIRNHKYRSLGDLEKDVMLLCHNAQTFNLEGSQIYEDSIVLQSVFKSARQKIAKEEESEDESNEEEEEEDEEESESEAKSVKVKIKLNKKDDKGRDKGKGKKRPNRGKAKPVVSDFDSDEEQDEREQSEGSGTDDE

Row | Structure (SMILES) | DC50 [nM] | Dmax [%]
1 | Cc1ncsc1-c1ccc(CNC(=O)[C@@H]2C[C@@H](O)CN2C(=O)[C@@H](c2cc(OCCN3CCN(CCOc4cc(N5C6CCC5CN(c5cc(-c7ccccc7O)nnc5N)C6)ccn4)C[C@@H]3C)no2)C(C)C)cc1 [compound 210, (2S,4R)-1-((2R)-2-(3-(2-((2S)-4-(2-((4-(3-(3-amino-6-(2-hydroxyphenyl)pyridazin-4-yl)-3,8-diazabicyclo[3.2.1]octan-8-yl)pyridin-2-yl)oxy)ethyl)-2-methylpiperazin-1-yl)ethoxy)isoxazol-5-yl)-3-methylbutanoyl)-4-hydroxy-N-(4-(4-methylthiazol-5-yl)benzyl)pyrrolidine-2-carboxamide] | < 2.5 | > 75
2 | CC(C)[C@@H](C(=O)N1C[C@H](O)C[C@H]1C(=O)N[C@@H](C)c1ccc(-c2scnc2CO)cc1)c1cc(OCCN2CCC(O[C@H]3C[C@H](Oc4cc(N5C6CCC5CN(c5cc(-c7ccccc7O)nnc5N)C6)ccn4)C3)CC2)no1 [compound 211, (2S,4R)-1-((2R)-2-(3-(2-(4-((1r,3R)-3-((4-(3-(3-amino-6-(2-hydroxyphenyl)pyridazin-4-yl)-3,8-diazabicyclo[3.2.1]octan-8-yl)pyridin-2-yl)oxy)cyclobutoxy)piperidin-1-yl)ethoxy)isoxazol-5-yl)-3-methylbutanoyl)-4-hydroxy-N-((S)-1-(4-(4-(hydroxymethyl)thiazol-5-yl)phenyl)ethyl)pyrrolidine-2-carboxamide] | < 2.5 | > 75
3 | Cc1ncoc1-c1ccc([C@H](C)NC(=O)[C@@H]2C[C@@H](O)CN2C(=O)[C@H](c2cc(OCCN3CCC(O[C@H]4C[C@H](Oc5cc(N6C7CCC6CN(c6cc(-c8ccccc8O)nnc6N)C7)ccn5)C4)CC3)no2)C(C)C)cc1 [compound 212, (2S,4R)-1-((2S)-2-(3-(2-(4-((1r,3S)-3-((4-(3-(3-amino-6-(2-hydroxyphenyl)pyridazin-4-yl)-3,8-diazabicyclo[3.2.1]octan-8-yl)pyridin-2-yl)oxy)cyclobutoxy)piperidin-1-yl)ethoxy)isoxazol-5-yl)-3-methylbutanoyl)-4-hydroxy-N-((S)-1-(4-(4-methyloxazol-5-yl)phenyl)ethyl)pyrrolidine-2-carboxamide] | > 30 | > 75
4 | Cc1ncoc1-c1ccc([C@H](C)NC(=O)[C@@H]2C[C@@H](O)CN2C(=O)[C@@H](c2cc(OCCN3CCC(O[C@H]4C[C@H](Oc5cc(N6C7CCC6CN(c6cc(-c8ccccc8O)nnc6N)C7)ccn5)C4)CC3)no2)C(C)C)cc1 [compound 213, (2S,4R)-1-((2R)-2-(3-(2-(4-((1r,3R)-3-((4-(3-(3-amino-6-(2-hydroxyphenyl)pyridazin-4-yl)-3,8-diazabicyclo[3.2.1]octan-8-yl)pyridin-2-yl)oxy)cyclobutoxy)piperidin-1-yl)ethoxy)isoxazol-5-yl)-3-methylbutanoyl)-4-hydroxy-N-((S)-1-(4-(4-methyloxazol-5-yl)phenyl)ethyl)pyrrolidine-2-carboxamide] | < 2.5 | > 75
5 | COc1cc(-c2scnc2C)ccc1CNC(=O)[C@@H]1C[C@@H](O)CN1C(=O)[C@H](c1cc(OCCN2CCC(O[C@H]3C[C@H](Oc4cc(N5C6CCC5CN(c5cc(-c7ccccc7O)nnc5N)C6)ccn4)C3)CC2)no1)C(C)C [compound 214, (2S,4R)-1-((2S)-2-(3-(2-(4-((1r,3S)-3-((4-(3-(3-amino-6-(2-hydroxyphenyl)pyridazin-4-yl)-3,8-diazabicyclo[3.2.1]octan-8-yl)pyridin-2-yl)oxy)cyclobutoxy)piperidin-1-yl)ethoxy)isoxazol-5-yl)-3-methylbutanoyl)-4-hydroxy-N-(2-methoxy-4-(4-methylthiazol-5-yl)benzyl)pyrrolidine-2-carboxamide] | > 30 | –
6 | COc1cc(-c2scnc2C)ccc1CNC(=O)[C@@H]1C[C@@H](O)CN1C(=O)[C@@H](c1cc(OCCN2CCC(O[C@H]3C[C@H](Oc4cc(N5C6CCC5CN(c5cc(-c7ccccc7O)nnc5N)C6)ccn4)C3)CC2)no1)C(C)C [compound 215, (2S,4R)-1-((2R)-2-(3-(2-(4-((1r,3R)-3-((4-(3-(3-amino-6-(2-hydroxyphenyl)pyridazin-4-yl)-3,8-diazabicyclo[3.2.1]octan-8-yl)pyridin-2-yl)oxy)cyclobutoxy)piperidin-1-yl)ethoxy)isoxazol-5-yl)-3-methylbutanoyl)-4-hydroxy-N-(2-methoxy-4-(4-methylthiazol-5-yl)benzyl)pyrrolidine-2-carboxamide] | < 2.5 | > 75
7 | Cc1ncsc1-c1ccc([C@H](C)NC(=O)[C@@H]2C[C@@H](O)CN2C(=O)[C@@H](c2cc(OCCN3CCC(O[C@H]4C[C@H](C#Cc5cc(N6C7CCC6CN(c6cc(-c8ccccc8O)nnc6N)C7)ccn5)C4)CC3)no2)C(C)C)cc1 [compound 216, (2S,4R)-1-((2R)-2-(3-(2-(4-((1r,3R)-3-((4-(3-(3-amino-6-(2-hydroxyphenyl)pyridazin-4-yl)-3,8-diazabicyclo[3.2.1]octan-8-yl)pyridin-2-yl)ethynyl)cyclobutoxy)piperidin-1-yl)ethoxy)isoxazol-5-yl)-3-methylbutanoyl)-4-hydroxy-N-((S)-1-(4-(4-methylthiazol-5-yl)phenyl)ethyl)pyrrolidine-2-carboxamide] | < 2.5 | > 75
8 | Cc1ncsc1-c1ccc([C@H](C)NC(=O)[C@@H]2C[C@@H](O)CN2C(=O)[C@H](c2cc(OCCCN3CCC(O[C@H]4C[C@H](Oc5cc(N6C7CCC6CN(c6cc(-c8ccccc8O)nnc6N)C7)ccn5)C4)CC3)no2)C(C)C)cc1 [compound 217, (2S,4R)-1-((2S)-2-(3-(3-(4-((1r,3S)-3-((4-(3-(3-amino-6-(2-hydroxyphenyl)pyridazin-4-yl)-3,8-diazabicyclo[3.2.1]octan-8-yl)pyridin-2-yl)oxy)cyclobutoxy)piperidin-1-yl)propoxy)isoxazol-5-yl)-3-methylbutanoyl)-4-hydroxy-N-((S)-1-(4-(4-methylthiazol-5-yl)phenyl)ethyl)pyrrolidine-2-carboxamide] | 2.5 to 10 | > 75
9 | Cc1ncsc1-c1ccc([C@H](C)NC(=O)[C@@H]2C[C@@H](O)CN2C(=O)[C@@H](c2cc(OCCCN3CCC(O[C@H]4C[C@H](Oc5cc(N6C7CCC6CN(c6cc(-c8ccccc8O)nnc6N)C7)ccn5)C4)CC3)no2)C(C)C)cc1 [compound 218, (2S,4R)-1-((2R)-2-(3-(3-(4-((1r,3R)-3-((4-(3-(3-amino-6-(2-hydroxyphenyl)pyridazin-4-yl)-3,8-diazabicyclo[3.2.1]octan-8-yl)pyridin-2-yl)oxy)cyclobutoxy)piperidin-1-yl)propoxy)isoxazol-5-yl)-3-methylbutanoyl)-4-hydroxy-N-((S)-1-(4-(4-methylthiazol-5-yl)phenyl)ethyl)pyrrolidine-2-carboxamide] | < 2.5 | > 75
10 | CC(C)[C@H](C(=O)N1C[C@H](O)C[C@H]1C(=O)N[C@@H](C)c1ccc(-c2scnc2CO)cc1)c1cc(OCCN2CCC(O[C@H]3C[C@H](Oc4cc(N5C6CCC5CN(c5cc(-c7ccccc7O)nnc5N)C6)ccn4)C3)CC2)no1 [compound 219, (2S,4R)-1-((2S)-2-(3-(2-(4-((1r,3S)-3-((4-(3-(3-amino-6-(2-hydroxyphenyl)pyridazin-4-yl)-3,8-diazabicyclo[3.2.1]octan-8-yl)pyridin-2-yl)oxy)cyclobutoxy)piperidin-1-yl)ethoxy)isoxazol-5-yl)-3-methylbutanoyl)-4-hydroxy-N-((S)-1-(4-(4-(hydroxymethyl)thiazol-5-yl)phenyl)ethyl)pyrrolidine-2-carboxamide] | > 30 | –
11 | Cc1ncsc1-c1ccc(CNC(=O)[C@@H]2C[C@@H](O)CN2C(=O)[C@H](c2cc(OCC#Cc3ccc(O[C@H]4C[C@H](Oc5cc(N6C7CCC6CN(c6cc(-c8ccccc8O)nnc6N)C7)ccn5)C4)cn3)no2)C(C)C)cc1 [compound 220, (2S,4R)-1-((2S)-2-(3-((3-(5-((1r,3S)-3-((4-(3-(3-amino-6-(2-hydroxyphenyl)pyridazin-4-yl)-3,8-diazabicyclo[3.2.1]octan-8-yl)pyridin-2-yl)oxy)cyclobutoxy)pyridin-2-yl)prop-2-yn-1-yl)oxy)isoxazol-5-yl)-3-methylbutanoyl)-4-hydroxy-N-(4-(4-methylthiazol-5-yl)benzyl)pyrrolidine-2-carboxamide] | 10 to 30 | > 75
12 | Cc1ncsc1-c1ccc(CNC(=O)[C@@H]2C[C@@H](O)CN2C(=O)[C@@H](c2cc(OCC#Cc3ccc(O[C@H]4C[C@H](Oc5cc(N6C7CCC6CN(c6cc(-c8ccccc8O)nnc6N)C7)ccn5)C4)cn3)no2)C(C)C)cc1 [compound 221, (2S,4R)-1-((2R)-2-(3-((3-(5-((1r,3R)-3-((4-(3-(3-amino-6-(2-hydroxyphenyl)pyridazin-4-yl)-3,8-diazabicyclo[3.2.1]octan-8-yl)pyridin-2-yl)oxy)cyclobutoxy)pyridin-2-yl)prop-2-yn-1-yl)oxy)isoxazol-5-yl)-3-methylbutanoyl)-4-hydroxy-N-(4-(4-methylthiazol-5-yl)benzyl)pyrrolidine-2-carboxamide] | < 2.5 | > 75
13 | Cc1ncsc1-c1ccc([C@H](C)NC(=O)[C@@H]2C[C@@H](O)CN2C(=O)[C@H](c2onc(OCCN3CCC(O[C@H]4C[C@H](Oc5cc(N6C7CCC6CN(c6cc(-c8ccccc8O)nnc6N)C7)ccn5)C4)CC3)c2Cl)C(C)C)cn1 [compound 222, (2S,4R)-1-((2S)-2-(3-(2-(4-((1r,3S)-3-((4-(3-(3-amino-6-(2-hydroxyphenyl)pyridazin-4-yl)-3,8-diazabicyclo[3.2.1]octan-8-yl)pyridin-2-yl)oxy)cyclobutoxy)piperidin-1-yl)ethoxy)-4-chloroisoxazol-5-yl)-3-methylbutanoyl)-4-hydroxy-N-((S)-1-(6-(4-methylthiazol-5-yl)pyridin-3-yl)ethyl)pyrrolidine-2-carboxamide] | > 30 | –
